{"source": "paper PMC11983575", "about": "“Study on the synthesis and biological activity of kojic acid triazol thiosemicarbazide Schiff base derivatives” (Journal of Enzyme Inhibition and Medicinal Chemistry, 2025)", "key": {"mushroom tyrosinase [1]": {"target": "T1, mushroom tyrosinase (Agaricus bisporus, UniProt C7FF04)", "T1 sequence (C7FF04 1-392)": "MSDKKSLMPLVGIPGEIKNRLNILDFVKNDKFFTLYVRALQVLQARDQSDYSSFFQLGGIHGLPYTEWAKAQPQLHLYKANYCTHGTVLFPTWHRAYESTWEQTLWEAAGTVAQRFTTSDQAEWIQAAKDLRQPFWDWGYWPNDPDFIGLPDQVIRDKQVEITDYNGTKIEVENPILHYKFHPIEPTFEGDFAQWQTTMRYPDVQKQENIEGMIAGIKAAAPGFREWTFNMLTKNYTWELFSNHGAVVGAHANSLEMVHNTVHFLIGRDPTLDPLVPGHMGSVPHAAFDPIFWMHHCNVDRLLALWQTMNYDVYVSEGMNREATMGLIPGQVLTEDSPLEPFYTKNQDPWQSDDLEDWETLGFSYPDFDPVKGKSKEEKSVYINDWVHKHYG", "assay": "In vitro mushroom tyrosinase inhibition (L-DOPA substrate)", "assay_type": "biochemical", "conditions": "475 nm, read-out: IC50 (μM) ± SD, inhibitory tyrosinase activity", "experimental": "The mushroom tyrosinase inhibitory activity was determined according to previous described method. Briefly, 168 μl of phosphate buffer (0.1 M, pH 6.8), 10 μl of mushroom tyrosinase (0.5 mg/ml, Sigma Chemical, St. Louis, MO) and 2 μl of the inhibitor solution were placed in the wells of a 96-well micro plate. After pre-incubation for 20 min at 37 °C, 20 μl of 2.0 mg/ml L-DOPA (3,4-dihydroxyphenylalanine, Sigma Chemical, St. Louis, MO) was added and the enzyme activity was measured at 475 nm every 60 s for 180 s in a Microplate Reader (Bio-Rad Laboratories, Inc., Hercules, CA). Kojic acid and phosphate buffer were respectively used as positive and negative control. The extent of inhibition by the test compounds was expressed as the percentage of concentration necessary to achieve 50% inhibition (IC50). The percentage of inhibition was calculated as follows: inhibitory rate (%) = [Ac − At)/Ac] × 100. Ac is the absorbance of the negative control and At is the absorbance of the test compound. Each concentration was analysed in three independent experiments run in triplicate. The IC50 values were determined by the data analysis software GraphPad Prism 8 (La Jolla, CA).\nThe tyrosinase inhibition measurements of compounds 6a–6x were carried out using L-DOPA as substrate. Kojic acid was selected as a positive control compound. […]. […] Moreover, inhibitory activity of compound with hydroxyl group at papa position is better than the inhibitory activity of compound with hydroxyl group at meta position, and inhibitory activity of compound with hydroxyl group at meta position is better than the inhibitory activity of compound with hydroxyl group at ortho position. […]. […] In addition, with the increase of atomic radius, the inhibitory activity gradually decreases. (3) The inhibitory activity of alkoxy substituted compound is better than that of alkyl substituted compound. (4) Comparing the tyrosinase inhibitory activity of compounds with halogen atom (6b–6d, 6q–6s) and compounds with methyl or methoxy (6e–6f, 6t–6u), when the hydrogen (R^2) was replaced by the methyl (R^2), the inhibitory activity was decreased."}, "tyrosinase": {"target": "T2, tyrosinase (Agaricus bisporus, UniProt C7FF04)", "T2 construct": "purchased Sigma-Aldrich Chemical Co. (Shanghai, China)", "T2 sequence (C7FF04 1-392 limits assumed)": "as the sequence (C7FF04 1-392) above", "assay": "Fluorescence quenching of tyrosinase (Stern-Volmer)", "assay_type": "binding", "conditions": "for KSV / Kq: Stern-Volmer", "experimental": "To investigate fluorescence quenching role of inhibitor to the tyrosinase, fluorescence experiments were carried according to the reported method. To determine the linear concentration range of the fluorescence, compound 6w was first dissolved in DMSO. The concentration of the solution was 10 mM, and then was diluted with sodium phosphate buffer. The ultimate concentration was changed from 0 to 50 μM. A series of 3 ml solutions containing 1.5 ml of tyrosinase solution were added to a centrifuge tube and then accurately mixed with different concentrations of 6w solution range from 0 to 50 μM. Cary Eclipse G9800A fluorescence spectrophotometer (Agilent Technologies Co., Santa Clara, CA) was employed to detect the fluorescence intensity. The excitation wavelength was set to 280 nm, the bath was set as three temperatures (292 K, 298 K, and 304 K) with a scanning wavelength change from 300 to 500 nm. The excitation and emission bandwidths were 5 nm. The final tyrosinase concentration was 0.05 mg/ml.\nFluorescence quenching means that some small molecule compounds bind to protein that can affect the fluorescence intensity of the fluorophore. Therefore, in order to obtain information about conformational changes of enzymes, fluorescence spectroscopy has become a very important research tool. With increasing concentrations of compound 6w, the dramatically decreasing fluorescence intensity of tyrosinase could be found. […] At the same time, there was no significant red shift or blue shift in the fluorescence emission peak of tyrosinase after the addition of compound 6w. […] The quenching of the intrinsic fluorescence provided a direct and clear evidence that the inhibitor 6w was capable of binding to tyrosinase, and the binding of 6w to tyrosinase led to change in the microenvironment around the fluorophore, and the detailed KSV values are summarised Table 2.\nFigure 3. (A) Changes in the tyrosinase fluorescence at different concentrations of compound 6w (λex = 280 nm, T = 298 K). The final enzyme concentration was 0.05 mg/ml, and c (compound 6w) = 0 μM, 5 μM, 15 μM, 20 μM, 25 μM, 30 μM, 35 μM, 40 μM, 45 μM, and 50 μM for the curves from top to bottom, respectively. (B) The Stern–Volmer figure of compound 6w and tyrosinase at 292, 298, and 304 K."}, "mushroom tyrosinase [2]": {"target": "T1, mushroom tyrosinase", "assay": "Tyrosinase kinetic analysis (Lineweaver-Burk plots)", "assay_type": "biochemical", "experimental": "To study the inhibition type of kojic acid-triazole derivatives, the investigation of inhibitory type of selected compound 6w on mushroom tyrosinase was carried out according to reported protocol. Compound 6w was used at the concentrations of […], respectively. Substrate L-DOPA concentration was between 500 µM and 1000 µM in the process of all kinetic study. Pre-incubation time and measurement time were the same as described in mushroom tyrosinase inhibition assay procedure. Lineweaver–Burk’s plots of inverse of velocities (1/V) versus inverse of substrate concentration 1/[S] µM^−1 were used to determine the type of enzyme inhibition.\nAmong the assessed kojic acid triazol thiosemicarbazide Schiff base derivatives, compound 6w expressed better tyrosinase inhibitory activity than the other compounds, in order to further explore the inhibition mechanism, the inhibitory type of the compound 6w on mushroom tyrosinase was decided by the Lineweaver–Burk double reciprocal plots. The Lineweaver–Burk plots were obtained by different concentrations of the compound 6w and the substrate (Figure 2(A)). The plots of 1/V versus 1/[S] gave a family of straight lines with different slopes. […] All of the straight lines intersected at a point in the second quadrant. […] The inhibition constant (Ki) of the compound was obtained by a plot of the slope versus the concentrations of the compound 6w, Kis of the compound was obtained by a plot of vertical intercept (1/Vm) versus the concentrations of the compound 6w, the results were shown in Figure 2(B,C). […] Compound 6w has a better binding with free enzyme.\nFigure 2. Kinetic inhibition measurement of compound 6w. […] (A) The concentrations of compound 6w in the figure were 0, 0.5 μM, 1 μM, and 2 μM, respectively. (B) The secondary replot indicates the intercept versus the concentrations of compound 6w to define the inhibition constant Kis. (C) The secondary replot indicates the slope versus the concentrations of compound 6w to define the inhibition constant Ki."}}, "data": [{"substance": "2-(1-(4-((1-((5-Hydroxy-4-oxo-4H-pyran-2-yl)methyl)-1H-1,2,3-triazol-5-yl)methoxy)phenyl)ethylidene)hydrazinecarbothioamide [Compound 6w]", "values": [{"measurement": "IC50", "setting": "mushroom tyrosinase [1]", "result": "0.94 ± 0.035", "unit": "µM"}, {"measurement": "fluorescence quenching mechanism", "setting": "tyrosinase; 292, 298 and 304 K", "result": "dynamic quenching"}, {"measurement": "KSV", "setting": "tyrosinase; T 292 K", "result": 0.03005, "unit": "L/µmol"}, {"measurement": "Kq", "setting": "tyrosinase; T 292 K", "result": "3.0052e+13", "unit": "M⁻¹ s⁻¹"}, {"measurement": "KSV", "setting": "tyrosinase; T 298 K", "result": 0.04605, "unit": "L/µmol"}, {"measurement": "Kq", "setting": "tyrosinase; T 298 K", "result": "4.6048e+13", "unit": "M⁻¹ s⁻¹"}, {"measurement": "KSV", "setting": "tyrosinase; T 304 K", "result": 0.06529, "unit": "L/µmol"}, {"measurement": "Kq", "setting": "tyrosinase; T 304 K", "result": "6.5292e+13", "unit": "M⁻¹ s⁻¹"}, {"measurement": "inhibition type", "setting": "mushroom tyrosinase [2]; Lineweaver-Burk double reciprocal plots", "result": "mixed type inhibitor"}, {"measurement": "Ki", "setting": "mushroom tyrosinase [2]; from plot of slope versus concentration of 6w, free enzyme, read-out: inhibition constant Ki", "result": 0.0003, "unit": "µM"}, {"measurement": "inhibition constant Kis", "setting": "mushroom tyrosinase [2]; from plot of vertical intercept (1/Vm) versus concentration of 6w", "result": 0.1997, "unit": "µM"}]}]}
